The source of these data is patent EP4603105A1, “PHARMACEUTICAL COMPOSITION CONTAINING CYCLIC COMPOUND HAVING SELECTIVE KRAS INHIBITORY EFFECT AGAINST HRAS AND NRAS” (CHUGAI SEIYAKU KABUSHIKI KAISHA, priority 2022, dated 2024).

Structures are written as SMILES. pIC50: −log10 of the molar value.

For assay [1], the target named is GDP-bound NRAS wild-type protein (Homo sapiens, UniProt P01111). In words: Binding to NRAS by surface plasmon resonance (SPR), KD and KD ratio to KRAS. The conditions noted are these: ratio of KD value for GDP-bound NRAS wild-type protein to KD value for KRAS (SPR). An outline of the steps: (§1)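 Compound binding is evaluated by SPR single-cycle kinetics, with concentrations added intermittently from low to high for 75 s each. Target surfaces carry GDP-loaded biotinylated Avi-RAS at about 100–300 RU, regenerated after each cycle; temperature 30°C. A 1:1 binding model gives KD.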
(In general: In SPR one partner is held on a chip, and binding of the other changes the refractive index at the surface.)

The target of the next assay is HRAS wild-type protein (Homo sapiens, UniProt P01112). The assay is described as follows: Binding to HRAS by surface plasmon resonance (SPR), KD and KD ratio to KRAS. The conditions noted are these: ratio of KD value for HRAS wild-type protein to KD value for KRAS (SPR). An outline of the steps: as §1
The test system of assay [2] is human lung cancer strain NCI-H441. The assay is classed as cell-based. An outline of the steps: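 Proliferation was scored by […] measured after the reagent was added to cultures kept at 37°C in 5% carbon dioxide.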

GDP-bound NRAS wild-type protein, sequence (P01111 whole entry): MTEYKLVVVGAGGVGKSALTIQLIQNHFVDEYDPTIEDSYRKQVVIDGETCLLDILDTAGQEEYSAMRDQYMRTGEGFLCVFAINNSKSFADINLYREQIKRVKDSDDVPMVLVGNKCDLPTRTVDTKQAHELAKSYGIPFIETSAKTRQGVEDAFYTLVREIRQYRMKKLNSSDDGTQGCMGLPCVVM
HRAS wild-type protein, sequence (P01112 whole entry): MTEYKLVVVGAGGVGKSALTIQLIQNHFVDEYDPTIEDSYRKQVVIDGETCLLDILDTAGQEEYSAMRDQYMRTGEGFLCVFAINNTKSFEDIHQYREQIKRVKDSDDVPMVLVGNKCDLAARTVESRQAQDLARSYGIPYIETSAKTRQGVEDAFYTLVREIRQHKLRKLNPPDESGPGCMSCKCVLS

One may read the pIC50 as the IC50 on a negative log10 scale, so that one unit is a factor of ten. High values mean a small IC50, low ones a large IC50. Consider `CCO[C@@H]1C[C@H]2C(=O)NC3(CC(C)(C)C3)C(=O)N(C)[C@@H](C(CC)CC)C(=O)N3CCC[C@@H]3CC(=O)N(C)[C@@H](CC3CC3)C(=O)N[C@@H]([C@@H](C)CC)C(=O)N(C)CC(=O)N(C)[C@H]3C/C=C\CCN(C3=O)[C@@H](Cc3ccc(C(F)(F)F)cc3)C(=O)N(C)CC(=O)N[C@@H](CCc3cc(F)c(C(F)(F)F)c(F)c3)C(=O)N2C1` [PP1610], for which the “NRAS /KRAS” value in assay [1] is “A (a compound having 10 or more and less than 20 is denoted as A)”. On HRAS wild-type protein, the “HRAS /KRAS” value is “A (a compound having 10 or more and less than 20 is denoted as A)”. Further, the pIC50 in assay [2] is 7.06.
Take `CCO[C@@H]1C[C@H]2C(=O)NC3(CC(C)(C)C3)C(=O)N(C)[C@@H](C3CCCC3)C(=O)N3CCC[C@@H]3CC(=O)N(C)[C@@H](CC3CC3)C(=O)N[C@@H]([C@@H](C)CC)C(=O)N(C)CC(=O)N(C)[C@H]3C/C=C\CCN(C3=O)[C@@H](Cc3ccc(C(F)(F)F)cc3)C(=O)N(C)CC(=O)N[C@@H](CCc3cc(F)c(C(F)(F)F)c(F)c3)C(=O)N2C1` [PP1611]: the “NRAS /KRAS” value in assay [1] was “B (a compound having 3 or more and less than 10 is denoted as B)”. In addition, the “HRAS /KRAS” value at HRAS wild-type protein is “B (a compound having 3 or more and less than 10 is denoted as B)”. In assay [2], the pIC50 is 7.55.
With `CCO[C@@H]1C[C@H]2C(=O)NC3(CCC3)C(=O)N(C)[C@@H](C(CC)CC)C(=O)N3CCC[C@@H]3CC(=O)N(C)[C@@H](CC3CC3)C(=O)N[C@@H]([C@@H](C)CC)C(=O)N(C)CC(=O)N(C)[C@H]3C/C=C\CCN(C3=O)[C@@H](Cc3ccc(C(F)(F)F)cc3)C(=O)N(C)CC(=O)N[C@@H](CCc3cc(F)c(C(F)(F)F)c(F)c3)C(=O)N2C1` [PP1612], the “NRAS /KRAS” value in assay [1] is “B (a compound having 3 or more and less than 10 is denoted as B)”. For the same molecule, the “HRAS /KRAS” value on HRAS wild-type protein was “B (a compound having 3 or more and less than 10 is denoted as B)”. The pIC50 in assay [2] was 7.21.
For the molecule `CCO[C@@H]1C[C@H]2C(=O)NC3(CCC3)C(=O)N(C)[C@@H](C3CCCC3)C(=O)N3CCC[C@@H]3CC(=O)N(C)[C@@H](CC3CC3)C(=O)N[C@@H]([C@@H](C)CC)C(=O)N(C)CC(=O)N(C)[C@H]3C/C=C\CCN(C3=O)[C@@H](Cc3ccc(C(F)(F)F)cc3)C(=O)N(C)CC(=O)N[C@@H](CCc3cc(F)c(C(F)(F)F)c(F)c3)C(=O)N2C1` [PP1613], the “NRAS /KRAS” value in assay [1] was “B (a compound having 3 or more and less than 10 is denoted as B)”. Also, at HRAS wild-type protein, the “HRAS /KRAS” value is “B (a compound having 3 or more and less than 10 is denoted as B)”. Besides, in assay [2], the pIC50 was 7.83.
As for `CCO[C@@H]1C[C@H]2C(=O)NC3(CC(F)(F)C3)C(=O)N(C)[C@@H](C(CC)CC)C(=O)N3CCC[C@@H]3CC(=O)N(C)[C@@H](CC3CC3)C(=O)N[C@@H]([C@@H](C)CC)C(=O)N(C)CC(=O)N(C)[C@H]3C/C=C\CCN(C3=O)[C@@H](Cc3ccc(C(F)(F)F)cc3)C(=O)N(C)CC(=O)N[C@@H](CCc3cc(F)c(C(F)(F)F)c(F)c3)C(=O)N2C1` [PP1614], the “NRAS /KRAS” value in assay [1] was “A (a compound having 10 or more and less than 20 is denoted as A)”. Besides, the “HRAS /KRAS” value at HRAS wild-type protein is “A (a compound having 10 or more and less than 20 is denoted as A)”. Further, the pIC50 in assay [2] is 7.27.
On to `CCO[C@@H]1C[C@H]2C(=O)NC3(CC(F)(F)C3)C(=O)N(C)[C@@H](C3CCCC3)C(=O)N3CCC[C@@H]3CC(=O)N(C)[C@@H](CC3CC3)C(=O)N[C@@H]([C@@H](C)CC)C(=O)N(C)CC(=O)N(C)[C@H]3C/C=C\CCN(C3=O)[C@@H](Cc3ccc(C(F)(F)F)cc3)C(=O)N(C)CC(=O)N[C@@H](CCc3cc(F)c(C(F)(F)F)c(F)c3)C(=O)N2C1` [PP1615], for which the “NRAS /KRAS” value in assay [1] was “B (a compound having 3 or more and less than 10 is denoted as B)”. Also, the “HRAS /KRAS” value at HRAS wild-type protein was “B (a compound having 3 or more and less than 10 is denoted as B)”. Also, the pIC50 in assay [2] is 7.68.
Regarding `CCO[C@@H]1C[C@H]2C(=O)NC3(CCC3)C(=O)N(C)[C@@H](C3CCCC3)C(=O)N3CCC[C@@H]3CC(=O)N(C)[C@@H](CC3CC3)C(=O)N[C@@H]([C@@H](C)CC)C(=O)N(C)CC(=O)N(C)[C@H]3C/C=C\CCN(C3=O)[C@@H](Cc3ccc(C(F)(F)F)cc3)C(=O)N(C)CC(=O)N[C@@H](CCc3ccc(C(F)(F)F)c(OC)c3)C(=O)N2C1` [PP1616], in assay [1], the “NRAS /KRAS” value was “B (a compound having 3 or more and less than 10 is denoted as B)”. Further, on HRAS wild-type protein, the “HRAS /KRAS” value is “B (a compound having 3 or more and less than 10 is denoted as B)”. Besides, the pIC50 in assay [2] was 7.47.
In the case of `CCO[C@@H]1C[C@H]2C(=O)NC3(CC(C)(C)C3)C(=O)N(C)[C@@H](C3CCCC3)C(=O)N3CCC[C@@H]3CC(=O)N(C)[C@@H](CC)C(=O)N[C@@H]([C@@H](C)CC)C(=O)N(C)CC(=O)N(C)[C@H]3C/C=C\CCN(C3=O)[C@@H](CC3CCCCC3)C(=O)N(C)CC(=O)N[C@@H](CCc3cc(F)c(C(F)(F)F)c(F)c3)C(=O)N2C1` [PP1620], the “NRAS /KRAS” value in assay [1] is “B (a compound having 3 or more and less than 10 is denoted as B)”. Also, the “HRAS /KRAS” value on HRAS wild-type protein is “B (a compound having 3 or more and less than 10 is denoted as B)”. Further, the pIC50 in assay [2] is 6.77.
For the molecule `CCO[C@@H]1C[C@H]2C(=O)NC3(CC(C)(C)C3)C(=O)N(C)[C@@H](C(CC)CC)C(=O)N(C)C(CC)CC(=O)N(C)[C@@H](CC)C(=O)N[C@@H]([C@@H](C)CC)C(=O)N(C)CC(=O)N(C)[C@H]3C/C=C\CCN(C3=O)[C@@H](Cc3ccc(C(F)(F)F)cc3)C(=O)N(C)CC(=O)N[C@@H](CCc3cc(F)c(C(F)(F)F)c(F)c3)C(=O)N2C1` (stereo partly drawn) [PP1622], the “NRAS /KRAS” value in assay [1] is “A (a compound having 10 or more and less than 20 is denoted as A)”. Besides, the “HRAS /KRAS” value at HRAS wild-type protein was “A (a compound having 10 or more and less than 20 is denoted as A)”. In addition, the pIC50 in assay [2] was 7.55.
Take `CCO[C@@H]1C[C@H]2C(=O)NC3(CC(C)(C)C3)C(=O)N(C)[C@@H](C3CCCC3)C(=O)N(C)[C@H](CC)CC(=O)N(C)[C@@H](CC)C(=O)N[C@@H]([C@@H](C)CC)C(=O)N(C)CC(=O)N(C)[C@H]3C/C=C\CCN(C3=O)[C@@H](Cc3ccc(C(F)(F)F)cc3)C(=O)N(C)CC(=O)N[C@@H](CCc3cc(F)c(C(F)(F)F)c(F)c3)C(=O)N2C1` [PP1623]: the “NRAS /KRAS” value in assay [1] was “A (a compound having 10 or more and less than 20 is denoted as A)”. At HRAS wild-type protein, the “HRAS /KRAS” value is “A (a compound having 10 or more and less than 20 is denoted as A)”. The molecule further gave a pIC50 in assay [2] of 8.35.
Take `CCO[C@@H]1C[C@H]2C(=O)NC3(CCC3)C(=O)N(C)[C@@H](C(CC)CC)C(=O)N(C)[C@H](CC)CC(=O)N(C)[C@@H](CC)C(=O)N[C@@H]([C@@H](C)CC)C(=O)N(C)CC(=O)N(C)[C@H]3C/C=C\CCN(C3=O)[C@@H](Cc3ccc(C(F)(F)F)cc3)C(=O)N(C)CC(=O)N[C@@H](CCc3cc(F)c(C(F)(F)F)c(F)c3)C(=O)N2C1` [PP1624]: the “NRAS /KRAS” value in assay [1] is “A (a compound having 10 or more and less than 20 is denoted as A)”. For the same molecule, the “HRAS /KRAS” value on HRAS wild-type protein is “A (a compound having 10 or more and less than 20 is denoted as A)”. Also, in assay [2], the pIC50 is 7.25.
Regarding `CCO[C@@H]1C[C@H]2C(=O)NC3(CCC3)C(=O)N(C)[C@@H](C3CCCC3)C(=O)N(C)[C@H](CC)CC(=O)N(C)[C@@H](CC)C(=O)N[C@@H]([C@@H](C)CC)C(=O)N(C)CC(=O)N(C)[C@H]3C/C=C\CCN(C3=O)[C@@H](Cc3ccc(C(F)(F)F)cc3)C(=O)N(C)CC(=O)N[C@@H](CCc3cc(F)c(C(F)(F)F)c(F)c3)C(=O)N2C1` [PP1625], in assay [1], the “NRAS /KRAS” value was “B (a compound having 3 or more and less than 10 is denoted as B)”. The “HRAS /KRAS” value at HRAS wild-type protein was “B (a compound having 3 or more and less than 10 is denoted as B)”. Moreover, in assay [2], the pIC50 is 7.69.
With `CCO[C@@H]1C[C@H]2C(=O)NC3(CC(F)(F)C3)C(=O)N(C)[C@@H](C(CC)CC)C(=O)N(C)[C@H](CC)CC(=O)N(C)[C@@H](CC)C(=O)N[C@@H]([C@@H](C)CC)C(=O)N(C)CC(=O)N(C)[C@H]3C/C=C\CCN(C3=O)[C@@H](Cc3ccc(C(F)(F)F)cc3)C(=O)N(C)CC(=O)N[C@@H](CCc3cc(F)c(C(F)(F)F)c(F)c3)C(=O)N2C1` [PP1626], the “NRAS /KRAS” value in assay [1] was “A (a compound having 10 or more and less than 20 is denoted as A)”. Further, the “HRAS /KRAS” value on HRAS wild-type protein is “A (a compound having 10 or more and less than 20 is denoted as A)”. In assay [2], the pIC50 is 6.97.
For `CCO[C@@H]1C[C@H]2C(=O)NC3(CC(F)(F)C3)C(=O)N(C)[C@@H](C3CCCC3)C(=O)N(C)[C@H](CC)CC(=O)N(C)[C@@H](CC)C(=O)N[C@@H]([C@@H](C)CC)C(=O)N(C)CC(=O)N(C)[C@H]3C/C=C\CCN(C3=O)[C@@H](Cc3ccc(C(F)(F)F)cc3)C(=O)N(C)CC(=O)N[C@@H](CCc3cc(F)c(C(F)(F)F)c(F)c3)C(=O)N2C1` [PP1627], the “NRAS /KRAS” value in assay [1] is “A (a compound having 10 or more and less than 20 is denoted as A)”. Besides, the “HRAS /KRAS” value at HRAS wild-type protein is “A (a compound having 10 or more and less than 20 is denoted as A)”. The molecule further had a pIC50 in assay [2] of 7.64.
Take `CCO[C@@H]1C[C@H]2C(=O)NC3(CC(C)(C)C3)C(=O)N(C)[C@@H](C(CC)CC)C(=O)N(C)[C@H](CC)CC(=O)N(C)[C@@H](CC3CC3)C(=O)N[C@@H]([C@@H](C)CC)C(=O)N(C)CC(=O)N(C)[C@H]3C/C=C\CCN(C3=O)[C@@H](Cc3ccc(C(F)(F)F)cc3)C(=O)N(C)CC(=O)N[C@@H](CCc3cc(F)c(C(F)(F)F)c(F)c3)C(=O)N2C1` [PP1628]: the “NRAS /KRAS” value in assay [1] was “A (a compound having 10 or more and less than 20 is denoted as A)”. Besides, the “HRAS /KRAS” value on HRAS wild-type protein was “A (a compound having 10 or more and less than 20 is denoted as A)”. The molecule further showed a negative-log IC50 (pIC50) in assay [2] of 6.82.
